{"source": "paper PMC11116522", "about": "“Illuminating the function of the orphan transporter, SLC22A10, in humans and other primates” (Nature Communications, 2024)", "molecules": {"B1": {"name": "chimpanzee SLC22A10 (552 aa) (Pan troglodytes) (protein)", "chain": "MAFEELLSQVGGLRRFQILHLVFILPSLMLLIPHILLENFAAAIPGHRCWVHMVDNNTGSGNETGILSEDALLRISIPLDSNLRPEKCRRFVHPQWQLLHLNGTIHSTSEADTEPCVDGWVYDQSYFPSTIVTKWDLVCDYQSLKSVVQFLLLTGMLVGGIIGGHVSDRFGRRFILRWCLLQLAITDTCAAFAPTFPVYCVLRFLAGFSSMIIISNNSLLITEWIRPNSKALVVILSSGALSIGQIILGGLAYVFRDWQTLHVVASVPFFVFFLLSRWLVESARWLIITNKLDEGLKALRKVARTNGIKNAEETLNIEVVRSTMQEELDAAQTKTTVCDLFRNPSMRKRICILVFLRFANTIPFYGTMVNLQHVGSNIFLLQVLYGAVALIVRCLALLTLNHMGRRISQILFMFLVGLSILANTFVPKEMQTLRVALACLGIGCSAATFSSVAVHFIELIPTVLRARASGIDLTASRIGAALAPLLMTLTVFFTTLPWIIYGIFPIIGGLIVFLLPETKNLPLPDTIKDVENQKKISRKRHKNDCYTKVTKF"}}, "key": {"[1]": {"molecular_target": "T1, gorilla SLC22A10 (552 aa) (Gorilla gorilla, UniProt G3RG24)", "T1 construct": "full length 552 aa, synthetic cDNA, HEK293 Flp-In cells", "T1 sequence (G3RG24 entry or part of it)": "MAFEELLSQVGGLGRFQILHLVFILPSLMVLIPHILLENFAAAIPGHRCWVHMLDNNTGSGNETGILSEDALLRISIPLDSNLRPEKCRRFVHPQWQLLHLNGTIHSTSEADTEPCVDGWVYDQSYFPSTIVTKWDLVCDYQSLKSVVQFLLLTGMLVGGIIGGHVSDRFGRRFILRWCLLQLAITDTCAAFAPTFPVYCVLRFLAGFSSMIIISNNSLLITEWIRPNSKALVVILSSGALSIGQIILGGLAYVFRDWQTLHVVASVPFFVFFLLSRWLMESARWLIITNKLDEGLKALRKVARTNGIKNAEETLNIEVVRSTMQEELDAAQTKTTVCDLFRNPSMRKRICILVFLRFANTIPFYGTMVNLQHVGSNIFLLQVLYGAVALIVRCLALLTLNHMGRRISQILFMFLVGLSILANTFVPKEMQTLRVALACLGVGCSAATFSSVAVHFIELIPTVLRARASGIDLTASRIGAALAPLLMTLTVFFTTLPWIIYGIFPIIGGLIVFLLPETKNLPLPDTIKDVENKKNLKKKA", "assay": "radiolabelled uptake in HEK293 Flp-In cells", "type": "cell-based", "details": "labelled compound; HBSS"}, "gibbon SLC22A10 (533 aa)": {"molecular_target": "T2, gibbon SLC22A10 (533 aa) (Nomascus leucogenys, UniProt G1QWU8)", "T2 construct": "gene LOC100590002; full length 533 aa isoform, synthetic cDNA, HEK293 Flp-In cells", "T2 sequence (G1QWU8 1-533)": "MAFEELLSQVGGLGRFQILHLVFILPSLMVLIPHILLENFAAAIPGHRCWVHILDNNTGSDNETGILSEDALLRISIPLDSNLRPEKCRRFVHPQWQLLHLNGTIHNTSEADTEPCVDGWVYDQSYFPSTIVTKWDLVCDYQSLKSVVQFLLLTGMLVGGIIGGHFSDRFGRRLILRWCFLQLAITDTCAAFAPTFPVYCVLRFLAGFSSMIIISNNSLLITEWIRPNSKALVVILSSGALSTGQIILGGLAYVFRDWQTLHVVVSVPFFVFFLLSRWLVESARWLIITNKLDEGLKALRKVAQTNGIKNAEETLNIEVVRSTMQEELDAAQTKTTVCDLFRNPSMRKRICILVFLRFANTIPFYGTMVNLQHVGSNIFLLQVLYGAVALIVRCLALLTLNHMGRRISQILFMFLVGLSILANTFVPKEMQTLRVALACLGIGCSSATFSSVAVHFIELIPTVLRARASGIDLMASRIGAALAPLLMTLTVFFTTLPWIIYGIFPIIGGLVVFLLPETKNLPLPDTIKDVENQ", "assay": "radiolabelled uptake in HEK293 Flp-In cells", "type": "cell-based", "details": "labelled compound; HBSS"}, "human SLC22A10 (541 aa)": {"molecular_target": "T3, human SLC22A10 (541 aa) (Homo sapiens, UniProt Q63ZE4, P220L)", "T3 construct": "full length 541 aa, pcDNA3.1(+) or N-terminal eGFP fusion, transient HEK293 Flp-In cells", "T3 sequence (Q63ZE4 1-541 P220L)": "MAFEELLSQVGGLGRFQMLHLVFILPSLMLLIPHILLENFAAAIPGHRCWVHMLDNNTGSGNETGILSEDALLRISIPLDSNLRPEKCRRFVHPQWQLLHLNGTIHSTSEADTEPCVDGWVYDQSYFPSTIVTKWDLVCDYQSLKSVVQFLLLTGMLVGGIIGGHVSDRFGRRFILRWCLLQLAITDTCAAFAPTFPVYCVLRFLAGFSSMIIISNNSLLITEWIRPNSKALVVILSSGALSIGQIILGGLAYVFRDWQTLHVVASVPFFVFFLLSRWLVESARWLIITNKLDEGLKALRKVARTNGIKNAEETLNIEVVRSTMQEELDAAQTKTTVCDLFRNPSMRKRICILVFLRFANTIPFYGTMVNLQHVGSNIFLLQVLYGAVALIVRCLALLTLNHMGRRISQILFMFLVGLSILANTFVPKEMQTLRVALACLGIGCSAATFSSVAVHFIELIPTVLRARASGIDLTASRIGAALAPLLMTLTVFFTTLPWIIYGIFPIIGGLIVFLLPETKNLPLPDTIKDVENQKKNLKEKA", "assay": "radiolabelled uptake in transiently transfected HEK293 Flp-In cells", "type": "cell-based", "details": "labelled compound; HBSS"}, "[2]": {"molecular_target": "T4, chimpanzee SLC22A10 (533 aa) (Pan troglodytes, UniProt A0A2I3TWY5)", "T4 sequence (A0A2I3TWY5 1-540)": "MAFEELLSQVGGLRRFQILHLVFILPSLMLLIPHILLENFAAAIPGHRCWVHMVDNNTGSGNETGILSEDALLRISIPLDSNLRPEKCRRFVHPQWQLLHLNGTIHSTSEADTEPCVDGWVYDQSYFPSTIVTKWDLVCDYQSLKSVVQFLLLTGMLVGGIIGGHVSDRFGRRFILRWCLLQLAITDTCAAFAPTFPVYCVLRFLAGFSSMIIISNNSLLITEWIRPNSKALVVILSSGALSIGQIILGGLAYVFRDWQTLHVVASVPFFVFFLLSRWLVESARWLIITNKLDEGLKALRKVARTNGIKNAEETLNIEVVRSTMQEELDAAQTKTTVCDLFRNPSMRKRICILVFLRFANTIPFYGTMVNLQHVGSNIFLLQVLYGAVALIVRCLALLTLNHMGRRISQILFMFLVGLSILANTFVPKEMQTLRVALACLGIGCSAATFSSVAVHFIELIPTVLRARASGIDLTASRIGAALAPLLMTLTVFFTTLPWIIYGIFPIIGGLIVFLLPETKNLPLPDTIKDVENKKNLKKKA", "assay": "radiolabelled uptake in stable HEK293 Flp-In cells, Michaelis-Menten fit", "type": "cell-based", "details": "37 °C, 5 min uptake, HBSS; empty-vector uptake subtracted; labelled compound"}, "[3]": {"molecular_target": "T5, orangutan SLC22A10 (533 aa) (Pongo abelii, UniProt A0A8I5UWR8)", "T5 construct": "full length 533 aa isoform, synthetic cDNA, HEK293 Flp-In cells", "T5 sequence (A0A8I5UWR8 1-533)": "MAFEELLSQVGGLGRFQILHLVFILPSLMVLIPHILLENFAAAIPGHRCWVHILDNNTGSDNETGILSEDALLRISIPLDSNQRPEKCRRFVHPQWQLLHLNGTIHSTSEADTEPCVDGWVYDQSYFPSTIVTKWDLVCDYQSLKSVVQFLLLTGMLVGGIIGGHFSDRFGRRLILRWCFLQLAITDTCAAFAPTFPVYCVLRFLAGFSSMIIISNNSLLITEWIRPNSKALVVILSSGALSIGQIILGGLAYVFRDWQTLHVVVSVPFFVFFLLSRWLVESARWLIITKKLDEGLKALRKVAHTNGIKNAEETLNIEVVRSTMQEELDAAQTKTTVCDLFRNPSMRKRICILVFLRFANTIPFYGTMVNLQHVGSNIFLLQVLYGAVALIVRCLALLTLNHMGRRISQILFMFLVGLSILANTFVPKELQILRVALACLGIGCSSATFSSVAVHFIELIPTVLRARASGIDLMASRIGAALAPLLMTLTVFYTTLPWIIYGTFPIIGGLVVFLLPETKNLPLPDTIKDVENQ", "assay": "radiolabelled uptake in HEK293 Flp-In cells", "type": "cell-based", "details": "labelled compound; HBSS"}, "[4]": {"molecular_target": "T6, squirrel monkey SLC22A10 (552 aa) (Saimiri boliviensis, UniProt A0A2K6SBP5)", "T6 construct": "full length 552 aa, synthetic cDNA, HEK293 Flp-In cells", "T6 sequence (A0A2K6SBP5 1-552)": "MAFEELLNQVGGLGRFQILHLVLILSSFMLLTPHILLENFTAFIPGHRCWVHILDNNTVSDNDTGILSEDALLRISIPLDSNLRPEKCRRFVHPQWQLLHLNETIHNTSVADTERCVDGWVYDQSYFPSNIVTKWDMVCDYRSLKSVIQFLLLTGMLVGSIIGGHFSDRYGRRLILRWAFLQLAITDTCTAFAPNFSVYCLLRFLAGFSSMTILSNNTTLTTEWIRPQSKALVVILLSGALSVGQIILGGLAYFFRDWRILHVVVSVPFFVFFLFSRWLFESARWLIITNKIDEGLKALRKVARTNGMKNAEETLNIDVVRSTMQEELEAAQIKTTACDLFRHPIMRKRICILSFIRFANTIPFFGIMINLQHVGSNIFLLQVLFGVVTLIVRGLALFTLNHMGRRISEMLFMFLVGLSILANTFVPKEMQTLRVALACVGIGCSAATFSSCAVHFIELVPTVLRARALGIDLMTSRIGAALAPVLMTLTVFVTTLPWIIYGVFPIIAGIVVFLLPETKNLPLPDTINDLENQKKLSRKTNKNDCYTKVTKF", "assay": "radiolabelled uptake in HEK293 Flp-In cells", "type": "cell-based", "details": "labelled compound; HBSS"}, "[5]": {"substrate": "C[C@]12CC[C@@H]3c4ccc(O)cc4CC[C@H]3[C@@H]1CC[C@@H]2O[C@@H]1O[C@H](C(=O)O)[C@@H](O)[C@H](O)[C@H]1O", "assay": "radiolabelled uptake in stable HEK293 Flp-In cells, Michaelis-Menten fit", "type": "cell-based, Pan troglodytes", "details": "37 °C, 5 min uptake, HBSS, empty-vector uptake subtracted, labelled compound"}}, "note": "Structures can show the parent of a compound that is named as a salt.", "data": [{"molecule": "C[C@]12CC[C@@H]3c4ccc(O)cc4CC[C@H]3[C@@H]1CC[C@@H]2O[C@@H]1O[C@H](C(=O)O)[C@@H](O)[C@H](O)[C@H]1O", "note": "[estradiol-17β-glucuronide]", "values": [{"measurement": "fold uptake", "setting": "[1]", "value": "Significant accumulation of [^3H]-estradiol-17β-glucuronide and [^3H]-androstanediol-3α-glucuronide were observed in cells expressing"}, {"measurement": "fold uptake", "setting": "gibbon SLC22A10 (533 aa)", "value": "from chimpanzee, orangutan and gibbon accumulated [^3H]-estradiol-17β-glucuronide and [^3H]-folic acid"}, {"measurement": "fold uptake", "setting": "human SLC22A10 (541 aa)", "value": "resulting in substantial accumulation of the substrate, estradiol-17β-glucuronide"}, {"measurement": "Km", "setting": "[2]", "value": "3.28 ± 2.25", "unit": "µM"}, {"measurement": "fold uptake", "setting": "[3]", "value": "from chimpanzee, orangutan and gibbon accumulated [^3H]-estradiol-17β-glucuronide and [^3H]-folic acid"}]}, {"molecule": "C[C@]12CC[C@@H]3c4ccc(OS(=O)(=O)O)cc4CC[C@H]3[C@@H]1CCC2=O", "note": "[estrone sulfate]", "values": [{"measurement": "uptake", "setting": "[4]", "value": "squirrel monkey, a New World monkey, preferred estrone sulfate over estradiol-17β- glucuronide"}]}, {"molecule": "Nc1nc2ncc(CNc3ccc(C(=O)N[C@@H](CCC(=O)O)C(=O)O)cc3)nc2c(=O)[nH]1", "note": "[folic acid]", "values": [{"measurement": "fold uptake", "setting": "gibbon SLC22A10 (533 aa)", "value": "from chimpanzee, orangutan and gibbon accumulated [^3H]-estradiol-17β-glucuronide and [^3H]-folic acid"}, {"measurement": "fold uptake", "setting": "[3]", "value": "from chimpanzee, orangutan and gibbon accumulated [^3H]-estradiol-17β-glucuronide and [^3H]-folic acid"}]}, {"molecule": "B1", "values": [{"measurement": "Km", "setting": "[5]", "value": "2.16 ± 0.59", "unit": "µM"}]}]}
